Test results from paper PMC9856672, “SGC-CAMKK2-1: A Chemical Probe for CAMKK2” (Cells, 2023).

What was measured:
FLT3(ITD,F691L) = test: KINOMEscan at 1 μM, FLT3(ITD,F691L); format: binding, human; conditions: 1000 nM
From the text: (§1) Supplement cells-12-00287-s001.zip/File S2. KinomeScan data for the CAMKK2 probe and negative control.xlsx, sheet "SGC-CAMKK2-1N" | column: Percent Control

ERBB3 = target: T1, ERBB3 (Homo sapiens, UniProt P21860); test: KINOMEscan at 1 μM, ERBB3; format: binding; conditions: 1000 nM, read-out: Percent Control
T1 construct: purchased Eurofins DiscoverX KINOMEscan
From the text: as §1

FGFR1 = target: T2, FGFR1 (Homo sapiens, UniProt P11362); test: KINOMEscan binding assay at 1 μM, FGFR1; conditions: Compound Concentration 1000 nM; read-out: Percent Control
T2 construct: purchased Eurofins DiscoverX KINOMEscan
From the text: as §1

PAK2 = target: T3, PAK2 (Homo sapiens, UniProt Q13177); test: KINOMEscan at 1 μM, PAK2; format: binding; conditions: 1000 nM, read-out: Percent Control
T3 construct: purchased Eurofins DiscoverX KINOMEscan
T3 sequence (Q13177 whole entry): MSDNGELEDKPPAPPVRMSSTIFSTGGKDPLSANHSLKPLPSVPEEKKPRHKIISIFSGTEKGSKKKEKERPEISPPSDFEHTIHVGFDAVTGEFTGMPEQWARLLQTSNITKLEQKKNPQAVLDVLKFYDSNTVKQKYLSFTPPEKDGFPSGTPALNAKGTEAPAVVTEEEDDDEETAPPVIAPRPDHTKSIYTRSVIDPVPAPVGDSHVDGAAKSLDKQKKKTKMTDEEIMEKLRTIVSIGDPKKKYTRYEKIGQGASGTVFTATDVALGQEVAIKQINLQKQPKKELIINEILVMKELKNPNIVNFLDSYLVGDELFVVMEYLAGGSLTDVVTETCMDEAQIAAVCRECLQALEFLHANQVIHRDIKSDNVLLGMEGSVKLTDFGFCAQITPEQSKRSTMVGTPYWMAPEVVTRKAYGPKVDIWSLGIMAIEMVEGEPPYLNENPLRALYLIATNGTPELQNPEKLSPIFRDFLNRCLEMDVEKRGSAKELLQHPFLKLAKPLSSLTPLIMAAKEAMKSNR
From the text: as §1

MINK = target: T4, MINK (Homo sapiens, UniProt Q8N4C8); test: KINOMEscan at 1 μM, MINK; format: binding; conditions: 1000 nM, read-out: Percent Control
T4 construct: purchased Eurofins DiscoverX KINOMEscan
From the text: as §1

[1] = target: T5, ABL1(T315I)-nonphosphorylated (Homo sapiens, UniProt P00519, T315I); test: KINOMEscan at 1 μM, ABL1(T315I)-nonphosphorylated; format: binding; conditions: 1000 nM, read-out: Percent Control
T5 construct: purchased Eurofins DiscoverX KINOMEscan
From the text: as §1

EGFR(L747-T751del,Sins) = test: KINOMEscan binding assay at 1 μM, EGFR(L747-T751del,Sins); design: species or system human; conditions: Compound Concentration 1000 nM
From the text: as §1

SBK1 = target: T6, SBK1 (Homo sapiens, UniProt Q52WX2); test: KINOMEscan at 1 μM, SBK1; format: binding; conditions: 1000 nM, read-out: Percent Control
T6 construct: purchased Eurofins DiscoverX KINOMEscan
T6 sequence (Q52WX2 whole entry): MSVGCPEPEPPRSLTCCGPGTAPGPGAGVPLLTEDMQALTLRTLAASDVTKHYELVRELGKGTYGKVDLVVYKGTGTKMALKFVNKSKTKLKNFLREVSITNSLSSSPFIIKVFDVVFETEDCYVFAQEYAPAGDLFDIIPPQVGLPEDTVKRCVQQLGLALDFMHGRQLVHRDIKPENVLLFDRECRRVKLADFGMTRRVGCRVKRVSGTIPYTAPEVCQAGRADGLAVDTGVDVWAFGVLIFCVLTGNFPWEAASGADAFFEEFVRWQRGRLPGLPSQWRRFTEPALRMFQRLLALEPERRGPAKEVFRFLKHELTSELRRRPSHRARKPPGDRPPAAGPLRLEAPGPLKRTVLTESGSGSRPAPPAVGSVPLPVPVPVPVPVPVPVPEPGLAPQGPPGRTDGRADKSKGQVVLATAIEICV
From the text: as §1

BMPR1A = target: T7, BMPR1A (Homo sapiens, UniProt P36894); test: KINOMEscan at 1 μM, BMPR1A; format: binding; conditions: 1000 nM, read-out: Percent Control
T7 construct: purchased Eurofins DiscoverX KINOMEscan
From the text: as §1

SYK = target: T8, SYK (Homo sapiens, UniProt P43405); test: KINOMEscan binding assay at 1 μM, SYK; conditions: Compound Concentration 1000 nM; read-out: Percent Control
T8 construct: purchased Eurofins DiscoverX KINOMEscan
From the text: as §1

MAPKAPK2 [2] = target: T9, MAPKAPK2 (Homo sapiens, UniProt P49137); test: KINOMEscan binding assay at 1 μM, MAPKAPK2; conditions: Compound Concentration 1000 nM; read-out: Percent Control
T9 construct: purchased Eurofins DiscoverX KINOMEscan
T9 sequence (P49137 whole entry): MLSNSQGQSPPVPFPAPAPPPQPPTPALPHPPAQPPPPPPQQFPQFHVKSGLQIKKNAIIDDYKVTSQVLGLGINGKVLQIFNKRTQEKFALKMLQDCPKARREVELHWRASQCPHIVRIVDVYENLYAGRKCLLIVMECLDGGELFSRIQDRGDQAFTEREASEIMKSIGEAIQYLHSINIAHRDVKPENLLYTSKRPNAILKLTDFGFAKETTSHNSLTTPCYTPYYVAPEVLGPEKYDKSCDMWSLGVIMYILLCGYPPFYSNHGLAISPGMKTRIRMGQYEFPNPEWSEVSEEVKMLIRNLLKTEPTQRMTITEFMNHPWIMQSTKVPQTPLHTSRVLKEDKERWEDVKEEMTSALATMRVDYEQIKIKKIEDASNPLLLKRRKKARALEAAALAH
From the text: as §1

SRPK2 = target: T10, SRPK2 (Homo sapiens, UniProt P78362); test: KINOMEscan at 1 μM, SRPK2; format: binding; conditions: 1000 nM, read-out: Percent Control
T10 construct: purchased Eurofins DiscoverX KINOMEscan
From the text: as §1

VRK2 = target: T11, VRK2 (Homo sapiens, UniProt Q86Y07); test: KINOMEscan at 1 μM, VRK2; format: binding; conditions: 1000 nM, read-out: Percent Control
T11 construct: purchased Eurofins DiscoverX KINOMEscan
From the text: as §1

NLK = target: T12, NLK (Homo sapiens, UniProt Q9UBE8); test: KINOMEscan at 1 μM, NLK; format: binding; conditions: 1000 nM, read-out: Percent Control
T12 construct: purchased Eurofins DiscoverX KINOMEscan
T12 sequence (Q9UBE8 whole entry): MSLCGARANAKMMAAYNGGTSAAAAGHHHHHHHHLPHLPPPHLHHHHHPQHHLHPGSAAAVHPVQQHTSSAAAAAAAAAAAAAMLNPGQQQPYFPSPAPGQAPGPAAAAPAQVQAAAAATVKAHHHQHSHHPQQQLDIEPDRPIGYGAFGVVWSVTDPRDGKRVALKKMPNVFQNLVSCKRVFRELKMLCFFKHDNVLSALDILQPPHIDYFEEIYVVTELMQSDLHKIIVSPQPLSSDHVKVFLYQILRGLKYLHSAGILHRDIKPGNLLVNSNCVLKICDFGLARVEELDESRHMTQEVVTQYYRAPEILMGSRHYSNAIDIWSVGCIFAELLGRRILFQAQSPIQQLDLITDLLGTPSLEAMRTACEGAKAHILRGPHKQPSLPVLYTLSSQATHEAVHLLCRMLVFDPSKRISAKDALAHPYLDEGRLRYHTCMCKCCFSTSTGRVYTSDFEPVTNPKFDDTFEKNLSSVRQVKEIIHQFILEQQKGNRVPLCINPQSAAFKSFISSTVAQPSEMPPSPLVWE
From the text: as §1

MYLK2 = target: T13, MYLK2 (Homo sapiens, UniProt Q9H1R3); test: KINOMEscan at 1 μM, MYLK2; format: binding; conditions: 1000 nM, read-out: Percent Control
T13 construct: purchased Eurofins DiscoverX KINOMEscan
From the text: as §1

CAMK2D = target: T14, CAMK2D (Homo sapiens, UniProt Q13557); test: KINOMEscan at 1 μM, CAMK2D; format: binding; conditions: 1000 nM, read-out: Percent Control
T14 construct: purchased Eurofins DiscoverX KINOMEscan
From the text: as §1

FGFR2 = target: T15, FGFR2 (Homo sapiens, UniProt P21802); test: KINOMEscan 1 μM, FGFR2; format: binding; conditions: 1000 nM; Entrez FGFR2; read-out: Percent Control
T15 construct: purchased Eurofins DiscoverX KINOMEscan
From the text: (§2) Supplement cells-12-00287-s001.zip/File S2. KinomeScan data for the CAMKK2 probe and negative control.xlsx, sheet "SGC-CAMKK2-1" | column: Percent Control

PIK3C2G = target: T16, PIK3C2G (Homo sapiens, UniProt O75747); test: KINOMEscan 1 μM, PIK3C2G; format: binding; conditions: 1000 nM; Entrez PIK3C2G; read-out: Percent Control
T16 construct: purchased Eurofins DiscoverX KINOMEscan
T16 sequence (O75747 whole entry): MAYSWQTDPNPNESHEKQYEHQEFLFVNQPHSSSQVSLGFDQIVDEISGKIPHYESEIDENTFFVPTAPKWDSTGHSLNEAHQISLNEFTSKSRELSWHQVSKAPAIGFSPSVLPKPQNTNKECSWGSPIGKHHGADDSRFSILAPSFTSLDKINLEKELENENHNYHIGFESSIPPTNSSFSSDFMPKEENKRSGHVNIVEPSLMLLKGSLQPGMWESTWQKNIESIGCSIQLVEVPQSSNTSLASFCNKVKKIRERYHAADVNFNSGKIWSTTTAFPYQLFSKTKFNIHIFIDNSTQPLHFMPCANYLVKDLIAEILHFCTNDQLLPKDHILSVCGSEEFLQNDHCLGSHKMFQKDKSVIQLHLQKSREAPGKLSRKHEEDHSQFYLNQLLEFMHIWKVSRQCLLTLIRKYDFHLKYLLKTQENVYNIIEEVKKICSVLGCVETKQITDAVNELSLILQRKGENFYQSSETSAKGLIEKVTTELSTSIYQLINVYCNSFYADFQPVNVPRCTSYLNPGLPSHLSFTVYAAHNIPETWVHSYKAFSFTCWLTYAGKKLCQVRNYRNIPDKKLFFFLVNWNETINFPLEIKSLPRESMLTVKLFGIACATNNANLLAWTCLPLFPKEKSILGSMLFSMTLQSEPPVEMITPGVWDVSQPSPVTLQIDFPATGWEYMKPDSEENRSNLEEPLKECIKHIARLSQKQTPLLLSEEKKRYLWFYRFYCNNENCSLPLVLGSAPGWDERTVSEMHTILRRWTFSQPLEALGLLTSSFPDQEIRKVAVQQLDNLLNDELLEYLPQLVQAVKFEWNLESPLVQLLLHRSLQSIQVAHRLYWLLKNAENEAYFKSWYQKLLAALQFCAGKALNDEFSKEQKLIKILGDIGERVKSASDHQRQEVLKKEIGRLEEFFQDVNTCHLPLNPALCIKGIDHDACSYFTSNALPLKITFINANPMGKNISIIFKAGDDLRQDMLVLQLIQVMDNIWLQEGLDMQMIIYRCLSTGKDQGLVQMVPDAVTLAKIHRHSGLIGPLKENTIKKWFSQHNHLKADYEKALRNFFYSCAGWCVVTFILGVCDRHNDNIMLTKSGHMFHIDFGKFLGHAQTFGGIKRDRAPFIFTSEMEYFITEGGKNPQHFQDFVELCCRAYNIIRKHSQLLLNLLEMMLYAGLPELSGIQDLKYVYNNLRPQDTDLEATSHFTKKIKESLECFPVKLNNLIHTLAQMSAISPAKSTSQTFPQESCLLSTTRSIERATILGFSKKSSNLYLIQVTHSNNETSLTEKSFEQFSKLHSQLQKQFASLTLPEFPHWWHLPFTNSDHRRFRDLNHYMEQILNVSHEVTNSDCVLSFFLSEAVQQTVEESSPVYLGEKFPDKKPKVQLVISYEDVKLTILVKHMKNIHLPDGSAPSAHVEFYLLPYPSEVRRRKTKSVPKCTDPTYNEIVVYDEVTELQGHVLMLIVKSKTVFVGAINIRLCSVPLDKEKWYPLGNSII
From the text: as §2

ERK4 = target: T17, ERK4 (Homo sapiens, UniProt P31152); test: KINOMEscan 1 μM, ERK4; format: binding; conditions: 1000 nM; Entrez MAPK4; read-out: Percent Control
T17 construct: purchased Eurofins DiscoverX KINOMEscan
From the text: as §2

ULK2 = target: T18, ULK2 (Homo sapiens, UniProt Q8IYT8); test: DiscoverX KINOMEscan binding assay at 1 μM, ULK2; conditions: Compound Concentration 1000 nM, read-out: Percent Control
T18 construct: purchased Eurofins DiscoverX KINOMEscan
From the text: as §2

TSSK1B = target: T19, TSSK1B (Homo sapiens, UniProt Q9BXA7); test: DiscoverX KINOMEscan binding assay at 1 μM, TSSK1B; conditions: Compound Concentration 1000 nM, read-out: Percent Control
T19 construct: purchased Eurofins DiscoverX KINOMEscan
From the text: as §2

CSF1R-autoinhibited = target: T20, CSF1R-autoinhibited (Homo sapiens, UniProt P07333); test: KINOMEscan 1 μM, CSF1R-autoinhibited; format: binding; conditions: 1000 nM; Entrez CSF1R; read-out: Percent Control
T20 construct: purchased Eurofins DiscoverX KINOMEscan
From the text: as §2

MAPKAPK2 [3] = target: T9, MAPKAPK2; test: KINOMEscan 1 μM, MAPKAPK2; format: binding; conditions: 1000 nM; Entrez MAPKAPK2; read-out: Percent Control
From the text: as §2

TBK1 = target: T21, TBK1 (Homo sapiens, UniProt Q9UHD2); test: KINOMEscan 1 μM, TBK1; format: binding; conditions: 1000 nM; Entrez TBK1; read-out: Percent Control
T21 construct: purchased Eurofins DiscoverX KINOMEscan
T21 sequence (Q9UHD2 whole entry): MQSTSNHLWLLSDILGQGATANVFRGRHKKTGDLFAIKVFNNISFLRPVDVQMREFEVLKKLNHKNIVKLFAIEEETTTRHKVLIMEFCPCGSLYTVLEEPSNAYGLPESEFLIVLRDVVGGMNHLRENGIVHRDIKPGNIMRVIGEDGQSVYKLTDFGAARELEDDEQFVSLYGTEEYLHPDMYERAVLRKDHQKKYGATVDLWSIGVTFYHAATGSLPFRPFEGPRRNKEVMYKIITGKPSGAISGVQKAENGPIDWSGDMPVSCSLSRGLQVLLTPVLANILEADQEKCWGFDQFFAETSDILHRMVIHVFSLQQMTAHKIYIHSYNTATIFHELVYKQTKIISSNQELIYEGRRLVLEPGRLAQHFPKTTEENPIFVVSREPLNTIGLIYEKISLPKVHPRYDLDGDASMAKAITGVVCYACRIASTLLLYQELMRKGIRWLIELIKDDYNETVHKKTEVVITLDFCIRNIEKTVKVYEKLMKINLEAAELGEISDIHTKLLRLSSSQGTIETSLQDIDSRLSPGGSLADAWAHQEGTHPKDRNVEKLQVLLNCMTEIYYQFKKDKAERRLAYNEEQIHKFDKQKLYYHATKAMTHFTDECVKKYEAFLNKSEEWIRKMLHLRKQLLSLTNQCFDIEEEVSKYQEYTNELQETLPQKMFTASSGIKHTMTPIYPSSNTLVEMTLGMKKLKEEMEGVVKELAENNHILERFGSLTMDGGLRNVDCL
From the text: as §2

TIE1 = target: T22, TIE1 (Homo sapiens, UniProt P35590); test: KINOMEscan 1 μM, TIE1; format: binding; conditions: 1000 nM; Entrez TIE1; read-out: Percent Control
T22 construct: purchased Eurofins DiscoverX KINOMEscan
From the text: as §2

AKT3 = target: T23, AKT3 (Homo sapiens, UniProt Q9Y243); test: KINOMEscan 1 μM, AKT3; format: binding; conditions: 1000 nM; Entrez AKT3; read-out: Percent Control
T23 construct: purchased Eurofins DiscoverX KINOMEscan
T23 sequence (Q9Y243 whole entry): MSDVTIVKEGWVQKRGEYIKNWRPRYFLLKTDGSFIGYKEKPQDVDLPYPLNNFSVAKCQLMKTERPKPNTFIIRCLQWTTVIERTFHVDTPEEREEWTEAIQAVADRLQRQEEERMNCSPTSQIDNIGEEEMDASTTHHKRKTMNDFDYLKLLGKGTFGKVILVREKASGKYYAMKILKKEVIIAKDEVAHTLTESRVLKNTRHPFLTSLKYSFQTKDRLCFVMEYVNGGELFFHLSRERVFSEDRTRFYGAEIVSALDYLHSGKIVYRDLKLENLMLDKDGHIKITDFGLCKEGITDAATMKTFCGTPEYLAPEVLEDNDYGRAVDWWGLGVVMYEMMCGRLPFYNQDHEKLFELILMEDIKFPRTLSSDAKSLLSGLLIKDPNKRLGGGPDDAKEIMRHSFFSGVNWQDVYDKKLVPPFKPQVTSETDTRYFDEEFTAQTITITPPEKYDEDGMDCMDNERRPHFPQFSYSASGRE
From the text: as §2

[4] = target: T24, JAK1(JH2domain-pseudokinase) (Homo sapiens, UniProt P23458); test: KINOMEscan 1 μM, JAK1(JH2domain-pseudokinase); format: binding; conditions: 1000 nM; Entrez JAK1; read-out: Percent Control
T24 construct: JAK1(JH2domain-pseudokinase); purchased Eurofins DiscoverX KINOMEscan
From the text: as §2

p38-beta = target: T25, p38-beta (Homo sapiens, UniProt Q15759); test: KINOMEscan 1 μM, p38-beta; format: binding; conditions: 1000 nM; Entrez MAPK11; read-out: Percent Control
T25 construct: purchased Eurofins DiscoverX KINOMEscan
From the text: as §2

[5] = target: T26, JAK3(JH1domain-catalytic) (Homo sapiens, UniProt P52333); test: KINOMEscan 1 μM, JAK3(JH1domain-catalytic); format: binding; conditions: 1000 nM; Entrez JAK3; read-out: Percent Control
T26 construct: JAK3(JH1domain-catalytic); purchased Eurofins DiscoverX KINOMEscan
T26 sequence (P52333 813-1124 limits assumed): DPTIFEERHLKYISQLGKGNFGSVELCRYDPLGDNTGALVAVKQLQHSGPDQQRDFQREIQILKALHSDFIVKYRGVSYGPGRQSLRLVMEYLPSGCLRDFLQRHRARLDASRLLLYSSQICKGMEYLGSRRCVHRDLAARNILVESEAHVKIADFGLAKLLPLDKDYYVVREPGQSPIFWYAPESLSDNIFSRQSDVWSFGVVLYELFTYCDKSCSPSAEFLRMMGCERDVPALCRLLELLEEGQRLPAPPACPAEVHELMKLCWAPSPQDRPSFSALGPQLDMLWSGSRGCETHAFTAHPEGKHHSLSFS
From the text: as §2

CDKL2 = target: T27, CDKL2 (Homo sapiens, UniProt Q92772); test: KINOMEscan 1 μM, CDKL2; format: binding; conditions: 1000 nM; Entrez CDKL2; read-out: Percent Control
T27 construct: purchased Eurofins DiscoverX KINOMEscan
From the text: as §2

IGF1R = target: T28, IGF1R (Homo sapiens, UniProt P08069); test: KINOMEscan 1 μM, IGF1R; format: binding; conditions: 1000 nM; Entrez IGF1R; read-out: Percent Control
T28 construct: purchased Eurofins DiscoverX KINOMEscan
From the text: as §2

RET(M918T) = target: T29, RET(M918T) (Homo sapiens, UniProt P07949, M918T); test: DiscoverX KINOMEscan binding assay at 1 μM, RET(M918T); conditions: Compound Concentration 1000 nM, read-out: Percent Control
T29 construct: purchased Eurofins DiscoverX KINOMEscan
From the text: as §2

GAK = target: T30, GAK (Homo sapiens, UniProt O14976); test: KINOMEscan 1 μM, GAK; format: binding; conditions: 1000 nM; Entrez GAK; read-out: Percent Control
T30 construct: purchased Eurofins DiscoverX KINOMEscan
From the text: as §2

**Q.** What does the source list for `O=C(O)c1ccc(-c2coc3ncc(-c4ccccc4)cc23)cc1Cl` [SGC-CAMKK2-1N (UNC-YL-83)]?
**A.** Percent Control (FLT3(ITD,F691L)): 81; remaining binding at 1 µM (ERBB3): 64%; remaining binding at 1 µM (FGFR1): 100%; remaining binding at 1 µM (PAK2): 78%; remaining binding at 1 µM (MINK): 95%; remaining binding at 1 µM [1]: 45%; Percent Control (EGFR(L747-T751del,Sins)): 100%; remaining binding at 1 µM (SBK1): 67%; remaining binding at 1 µM (BMPR1A): 93%; remaining binding at 1 µM (SYK): 100%; remaining binding at 1 µM (MAPKAPK2 [2]): 100%; remaining binding at 1 µM (SRPK2): 76%; remaining binding at 1 µM (VRK2): 58%; remaining binding at 1 µM (NLK): 84%; remaining binding at 1 µM (MYLK2): 82%; remaining binding at 1 µM (CAMK2D): 77%

**Q.** Which results are given for `Cc1cccc(-c2cnc3occ(-c4ccc(C(=O)O)c(C5CCCC5)c4)c3c2)c1` [SGC-CAMKK2-1 (YL-36)]?
**A.** remaining binding at 1 µM (FGFR2): 88%; remaining binding at 1 µM (PIK3C2G): 81%; remaining binding at 1 µM (ERK4): 100%; remaining binding at 1 µM (ULK2): 100%; remaining binding at 1 µM (TSSK1B): 100%; remaining binding at 1 µM (CSF1R-autoinhibited): 85%; remaining binding at 1 µM (MAPKAPK2 [3]): 100%; remaining binding at 1 µM (TBK1): 94%; remaining binding at 1 µM (TIE1): 77%; remaining binding at 1 µM (AKT3): 100%; remaining binding at 1 µM [4]: 90%; remaining binding at 1 µM (p38-beta): 100%; remaining binding at 1 µM [5]: 100%; remaining binding at 1 µM (CDKL2): 96%; remaining binding at 1 µM (IGF1R): 100%; remaining binding at 1 µM (RET(M918T)): 100%; remaining binding at 1 µM (GAK): 80%
